Data from ChEMBL document CHEMBL1201862, “PubChem BioAssay data set” (2004).
Calls of active or inactive are those of the source.

Assays:
[1] = target: T1, Calpain-2 catalytic subunit (Sus scrofa, UniProt P43367); assay: m-calpain protease blockers, concentration series – biochemical, fluorogenic peptide substrate, dose response (AID 1420); format: functional
T1 sequence (P43367 whole entry): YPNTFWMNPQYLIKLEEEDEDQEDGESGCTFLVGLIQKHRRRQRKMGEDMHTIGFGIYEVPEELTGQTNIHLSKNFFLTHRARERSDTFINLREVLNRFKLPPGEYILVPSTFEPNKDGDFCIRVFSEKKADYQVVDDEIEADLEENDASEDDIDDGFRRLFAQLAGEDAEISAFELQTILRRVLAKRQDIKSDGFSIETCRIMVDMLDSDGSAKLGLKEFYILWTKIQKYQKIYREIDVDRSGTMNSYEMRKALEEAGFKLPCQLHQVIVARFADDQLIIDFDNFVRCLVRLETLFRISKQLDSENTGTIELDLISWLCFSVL

[2] = target: T2, Fatty acid synthase (Homo sapiens, UniProt P49327); assay: inhibition of human FAS-TE enzyme activity – biochemical, endpoint fluorescence intensity, uHTS hits, dose response (AID 624327); format: functional;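 also: fluorescence from hydrolysis of an O-methyl fluorescein acyl ester substrate by the enzyme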
[3] = target: T2, Fatty acid synthase; assay: inhibition of human FAS-TE enzyme activity – biochemical, kinetic fluorescence intensity, dose response (AID 624326); format: functional;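 also: rate of fluorescence rise from hydrolysis of a fluorogenic O-methyl fluorescein ester substrate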
[4] = target: Cytochrome P450 3A4 (Homo sapiens, UniProt P08684); conditions: Potency;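 also: confirmatory qHTS run detecting inhibitors and substrates of CYP3A4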
[5] = Luminescence Cell-Based Dose Confirmation HTS to Identify Activators of 5'UTR Stem-Loop Driven Alpha-Synuclein mRNA Translation in H4 Neuroglioblastoma Cells. [Related pubchem assays: 1829 (Project Summary), 1814 (Primary HTS)]; format: functional
[6] = Luminescence Cell-Based Dose Response HTS to Identify Activators of Luciferase Translation or Activity in H4 […] Cells. [Related pubchem assays: 1829 (Project Summary), 1814 (Primary HTS)]; format: functional
[7] = system: H4; assay: Luminescence Cell-Based Dose Response HTS to Identify Activators of 5'UTR Stem-Loop Driven Prion Protein mRNA Translation in H4 Neuroglioblastoma Cells. [Related pubchem assays: 1829 (Project Summary), 1814 (Primary HTS)]; format: functional; conditions: Homo sapiens
[8] = target: Luciferin 4-monooxygenase (Photinus pyralis, UniProt P08659); assay: inhibition of purified Photinus pyralis luciferase – biochemical, luminescence, dose response (AID 1891)
[9] = Luminescence Cell-Based Dose Confirmation HTS to Identify Inhibitors of Platelet Dense Granule Release. [Related pubchem assays: 1663 (Primary HTS), 1678 (Summary of Project)]; format: functional
[10] = target: T3, Short transient receptor potential channel 4 (Mus musculus, UniProt Q9QUQ5); assay: calcium entry via TRPC4 opening agents – cell-based, HEK293 TRPC4/mu-opioid, Fluo-4 calcium, dose response (AID 434937); format: functional
T3 sequence (Q9QUQ5 whole entry): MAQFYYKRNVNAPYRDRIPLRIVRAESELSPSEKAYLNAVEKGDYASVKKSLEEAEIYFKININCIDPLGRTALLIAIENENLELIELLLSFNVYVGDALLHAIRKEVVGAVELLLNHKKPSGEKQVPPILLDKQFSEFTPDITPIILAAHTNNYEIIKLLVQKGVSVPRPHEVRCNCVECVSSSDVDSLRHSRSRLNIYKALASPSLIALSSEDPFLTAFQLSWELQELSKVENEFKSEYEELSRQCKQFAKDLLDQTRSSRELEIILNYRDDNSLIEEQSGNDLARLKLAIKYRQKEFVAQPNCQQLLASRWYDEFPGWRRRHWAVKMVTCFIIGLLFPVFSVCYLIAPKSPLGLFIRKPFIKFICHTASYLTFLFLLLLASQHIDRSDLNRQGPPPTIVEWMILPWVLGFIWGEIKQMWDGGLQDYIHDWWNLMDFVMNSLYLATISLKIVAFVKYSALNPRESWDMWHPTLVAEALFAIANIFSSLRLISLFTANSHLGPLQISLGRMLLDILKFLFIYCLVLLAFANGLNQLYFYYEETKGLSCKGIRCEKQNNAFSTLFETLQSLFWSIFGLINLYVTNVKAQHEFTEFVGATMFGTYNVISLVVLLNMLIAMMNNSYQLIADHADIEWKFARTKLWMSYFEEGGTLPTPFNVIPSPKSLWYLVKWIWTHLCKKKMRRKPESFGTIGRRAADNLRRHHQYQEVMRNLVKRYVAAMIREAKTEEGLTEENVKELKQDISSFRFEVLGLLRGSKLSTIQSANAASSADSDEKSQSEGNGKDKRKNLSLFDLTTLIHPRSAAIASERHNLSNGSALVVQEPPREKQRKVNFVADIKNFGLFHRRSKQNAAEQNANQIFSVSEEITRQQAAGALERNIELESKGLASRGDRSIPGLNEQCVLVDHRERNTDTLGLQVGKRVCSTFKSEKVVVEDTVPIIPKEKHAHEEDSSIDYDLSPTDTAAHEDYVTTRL

[11] = reduction of Shn3 3'UTR-driven luciferase in osteoblasts – cell-based, Clone20 osteoblasts, firefly luciferase, cherry-picked, dose response (AID 624132); format: functional;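 also: firefly luciferase luminescence from reporter carrying the Shn3 3'UTR in osteoblasts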
[12] = loss of viability in HepG2 cells – cell-based, CellTiter-Glo, cherry-picked, cytotoxicity control for Shn3 inhibitor project, dose response (AID 624134); format: functional
[13] = non-specific 3'UTR reporter inhibition in Clone20-Shn3RL – cell-based, Renilla luciferase, cherry-picked, counter-screen for Shn3 inhibitor project, dose response (AID 624133); format: functional
[14] = viability of uninfected HEp-2 cells – cell-based, HTS, cytotoxicity control for RSV inhibitor project, dose response (AID 2410); format: functional; conditions: human respiratory syncytial virus
[15] = Trypanosoma cruzi growth suppression in host cells – NIH3T3 host cells, beta-gal luminescence, confirmation (AID 2044); format: functional, cell-based;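 also: intracellular parasites grown in NIH/3T3 mouse fibroblasts as host cells; luminescent beta-galactosidase reporter signal from transgenic T. cruzi replicating inside host cells; inhibitors lower the luminescence signal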
[16] = NIH3T3 cell viability loss – ATP luminescence, mouse fibroblasts, counter-screen, dose response (AID 2010); format: functional, cell-based;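 also: cells exposed to compound for about 90 hours before reading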

T2 sequence (P49327 whole entry): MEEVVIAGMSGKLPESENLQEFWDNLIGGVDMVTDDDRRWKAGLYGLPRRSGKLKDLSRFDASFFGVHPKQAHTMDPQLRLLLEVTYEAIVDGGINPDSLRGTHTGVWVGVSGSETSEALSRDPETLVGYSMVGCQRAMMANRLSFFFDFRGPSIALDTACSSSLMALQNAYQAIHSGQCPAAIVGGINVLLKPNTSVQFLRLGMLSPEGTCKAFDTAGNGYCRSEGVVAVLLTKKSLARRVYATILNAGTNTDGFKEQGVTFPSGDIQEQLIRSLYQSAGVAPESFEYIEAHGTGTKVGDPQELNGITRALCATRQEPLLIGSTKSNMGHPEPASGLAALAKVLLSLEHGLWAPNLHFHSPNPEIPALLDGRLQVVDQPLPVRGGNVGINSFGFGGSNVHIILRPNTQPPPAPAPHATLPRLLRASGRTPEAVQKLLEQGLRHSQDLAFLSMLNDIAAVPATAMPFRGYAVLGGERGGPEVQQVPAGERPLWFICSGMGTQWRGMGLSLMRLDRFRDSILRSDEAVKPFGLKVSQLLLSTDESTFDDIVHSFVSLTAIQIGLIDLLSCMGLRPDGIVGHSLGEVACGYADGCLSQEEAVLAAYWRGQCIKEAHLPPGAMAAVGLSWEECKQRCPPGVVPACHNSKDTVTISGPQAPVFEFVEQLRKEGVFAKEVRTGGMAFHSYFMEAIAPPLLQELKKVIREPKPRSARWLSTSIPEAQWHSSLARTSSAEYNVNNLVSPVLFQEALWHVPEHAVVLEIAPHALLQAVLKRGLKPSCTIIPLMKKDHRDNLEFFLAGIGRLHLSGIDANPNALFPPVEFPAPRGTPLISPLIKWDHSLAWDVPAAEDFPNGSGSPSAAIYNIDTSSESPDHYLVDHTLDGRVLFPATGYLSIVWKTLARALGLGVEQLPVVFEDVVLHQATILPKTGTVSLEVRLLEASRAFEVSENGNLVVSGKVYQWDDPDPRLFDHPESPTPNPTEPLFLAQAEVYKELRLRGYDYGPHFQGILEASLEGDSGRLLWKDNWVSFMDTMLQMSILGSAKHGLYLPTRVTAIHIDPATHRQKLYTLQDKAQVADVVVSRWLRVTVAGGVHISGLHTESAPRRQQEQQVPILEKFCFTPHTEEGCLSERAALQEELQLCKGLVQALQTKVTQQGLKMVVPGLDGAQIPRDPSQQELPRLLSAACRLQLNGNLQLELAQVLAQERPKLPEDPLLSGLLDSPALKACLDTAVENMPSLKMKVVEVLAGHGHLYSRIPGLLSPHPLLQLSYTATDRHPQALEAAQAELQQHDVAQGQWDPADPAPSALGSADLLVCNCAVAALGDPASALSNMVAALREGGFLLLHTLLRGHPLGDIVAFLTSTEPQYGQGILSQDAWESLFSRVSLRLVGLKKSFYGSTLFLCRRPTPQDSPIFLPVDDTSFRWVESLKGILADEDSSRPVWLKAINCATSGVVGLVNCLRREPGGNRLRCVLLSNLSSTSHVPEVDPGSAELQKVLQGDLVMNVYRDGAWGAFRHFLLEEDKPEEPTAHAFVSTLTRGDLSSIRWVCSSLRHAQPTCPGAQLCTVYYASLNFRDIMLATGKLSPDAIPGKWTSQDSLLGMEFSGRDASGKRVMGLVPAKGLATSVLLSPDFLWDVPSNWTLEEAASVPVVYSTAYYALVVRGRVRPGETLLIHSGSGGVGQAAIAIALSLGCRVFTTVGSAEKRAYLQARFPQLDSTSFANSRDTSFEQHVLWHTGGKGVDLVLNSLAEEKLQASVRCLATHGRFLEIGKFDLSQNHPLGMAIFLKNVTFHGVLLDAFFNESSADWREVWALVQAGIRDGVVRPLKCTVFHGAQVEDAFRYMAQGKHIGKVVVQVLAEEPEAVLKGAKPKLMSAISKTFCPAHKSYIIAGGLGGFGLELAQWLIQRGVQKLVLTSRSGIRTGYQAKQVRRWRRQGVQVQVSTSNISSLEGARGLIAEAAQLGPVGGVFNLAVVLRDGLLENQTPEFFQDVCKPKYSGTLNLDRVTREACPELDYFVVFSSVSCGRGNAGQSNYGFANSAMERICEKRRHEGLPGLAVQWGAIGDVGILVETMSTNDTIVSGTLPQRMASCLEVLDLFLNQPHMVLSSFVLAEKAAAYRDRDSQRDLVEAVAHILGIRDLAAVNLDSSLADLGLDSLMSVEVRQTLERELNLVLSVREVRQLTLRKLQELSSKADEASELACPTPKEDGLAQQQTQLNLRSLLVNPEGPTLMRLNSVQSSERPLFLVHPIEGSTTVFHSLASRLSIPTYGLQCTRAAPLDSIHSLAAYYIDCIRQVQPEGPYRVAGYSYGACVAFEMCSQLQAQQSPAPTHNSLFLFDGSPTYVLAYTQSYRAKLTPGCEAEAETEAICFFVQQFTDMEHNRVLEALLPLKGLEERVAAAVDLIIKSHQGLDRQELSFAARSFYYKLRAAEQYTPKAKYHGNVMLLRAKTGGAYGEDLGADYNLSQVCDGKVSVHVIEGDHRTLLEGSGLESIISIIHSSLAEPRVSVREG
Chain of Cytochrome P450 3A4 (P08684 whole entry): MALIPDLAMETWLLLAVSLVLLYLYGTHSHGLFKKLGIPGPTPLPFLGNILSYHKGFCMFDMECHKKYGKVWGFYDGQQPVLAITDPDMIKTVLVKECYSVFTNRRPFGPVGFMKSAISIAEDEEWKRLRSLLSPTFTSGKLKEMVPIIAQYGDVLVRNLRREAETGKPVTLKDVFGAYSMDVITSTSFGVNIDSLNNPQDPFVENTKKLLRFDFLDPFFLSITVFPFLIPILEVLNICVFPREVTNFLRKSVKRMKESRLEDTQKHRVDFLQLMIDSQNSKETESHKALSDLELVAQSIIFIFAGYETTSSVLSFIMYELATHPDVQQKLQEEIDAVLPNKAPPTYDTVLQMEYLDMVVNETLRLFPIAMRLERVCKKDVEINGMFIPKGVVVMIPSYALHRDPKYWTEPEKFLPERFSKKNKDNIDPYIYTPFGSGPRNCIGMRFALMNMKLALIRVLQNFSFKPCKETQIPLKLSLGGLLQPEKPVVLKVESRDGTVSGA
Chain of Luciferin 4-monooxygenase (P08659 whole entry): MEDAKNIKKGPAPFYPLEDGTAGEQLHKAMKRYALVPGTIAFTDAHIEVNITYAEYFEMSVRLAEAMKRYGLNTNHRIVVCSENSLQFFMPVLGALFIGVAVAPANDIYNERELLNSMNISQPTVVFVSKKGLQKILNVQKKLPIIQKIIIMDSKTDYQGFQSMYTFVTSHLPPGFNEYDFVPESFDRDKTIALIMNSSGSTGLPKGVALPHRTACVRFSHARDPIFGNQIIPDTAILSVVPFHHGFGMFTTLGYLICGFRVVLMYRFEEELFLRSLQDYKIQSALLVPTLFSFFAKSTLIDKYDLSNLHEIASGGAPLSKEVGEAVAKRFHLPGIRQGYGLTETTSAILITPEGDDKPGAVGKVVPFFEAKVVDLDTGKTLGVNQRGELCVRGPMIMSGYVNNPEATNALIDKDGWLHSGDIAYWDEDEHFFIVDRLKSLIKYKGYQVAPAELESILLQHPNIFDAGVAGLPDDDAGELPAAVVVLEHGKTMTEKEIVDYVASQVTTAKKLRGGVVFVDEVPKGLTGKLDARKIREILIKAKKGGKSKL

In the case of `O=C(CSc1ccccn1)N/N=C/c1c[nH]c2ccccc12`, the IC50 [1] is reported as > 50 µM (not active).
In the case of `CCC(C)(C)C1CCc2n[nH]c(C(=O)NCCCNC(=O)OC(C)(C)C)c2C1` (centres undefined), the IC50 [2] is reported as 0.524 µM (active) and the IC50 [3] is reported as 24.3 µM (inactive).
With `CCCCCCC1=Cc2cc(OC)c(OC)cc2C(C2(C(=O)OCC)CCCC2=O)O1` (centres undefined) the AC50 [4] was 3.16 µM (inconclusive).
In the case of `CC(=O)c1ccc(NC(=O)CCc2nnc3ccc(NCc4ccco4)nn23)cc1`, the EC50 [5] is reported as 6.27 µM (active), the EC50 [6] is reported as 11.2 µM (active) and the EC50 [7] is reported as > 120 µM (not active). The EC50 [8] was > 112 µM (not active) and the EC50 [9] was > 112 µM (not active).
For `Fc1cccc(Cn2cc(C(=S)N3CCCCC3)c3ccccc32)c1`, the IC50 [1] was 2.86 µM (not active).
With `O=C(CCNC(=O)c1ccc([N+](=O)[O-])cc1)NCc1ccccc1` the IC50 [2] was 11.3 µM (active) and the IC50 [3] was 10.4 µM (active).
For `COc1ccc(S(=O)(=O)N2CCC(NC(=O)OCc3c(Cl)cccc3Cl)CC2)cc1`, the IC50 [1] was 7.91 µM (not active).
In the case of `COc1cccc(C2=CC(c3ccc(OC)c(OC)c3)NC(S)=N2)c1` (centres undefined), the IC50 [1] is reported as 2.81 µM (not active).
In the case of `Cc1ccc(CNC(=O)C2CCCN(Cc3cnn(-c4ccccc4)c3-n3cccc3)C2)cc1` (centres undefined), the EC50 [10] is reported as 4.73 µM (active).
With `O=C(Cn1c(=O)c2sccc2n(Cc2cccc([N+](=O)[O-])c2)c1=O)NCCc1ccccc1` the IC50 [2] was 11.1 µM (active) and the IC50 [3] was 26.7 µM (inactive).
In the case of `COc1ccc(-c2cc(=O)c3c(O)cc(O)c(-c4cc(-c5cc(=O)c6c(O)cc(O)cc6o5)ccc4OC)c3o2)cc1` [ISOGINKGETIN], the AC50 [4] is reported as 3.98 µM (inconclusive).
For `COc1ccc(C[C@H]2COC(=O)[C@@H]2Cc2ccc(OC3OC(CO)C(O)C(O)C3O)c(OC)c2)cc1OC` (some centres undefined), the AC50 [11] was 4.43 µM (active), the AC50 [12] was 48.3 µM (active) and the AC50 [13] was 15.5 µM (active).
With `Cc1ccc2nc(N=C(N)NS(=O)(=O)c3ccc([N+](=O)[O-])cc3)nc(C)c2c1` the CC50 [14] was 35.2 µM (active), the EC50 [15] was 199 nM (active) and the EC50 [16] was > 60 µM (not active). The IC50 [2] was 12.2 µM (active) and the IC50 [3] was 14.5 µM (active).
With `O=C(NCC1CCCCC1)c1cc([N+](=O)[O-])ccc1Cl` the IC50 [2] was 13.8 µM (active) and the IC50 [3] was 9.77 µM (active).
For `CCCCN=C(S)Nc1cc([N+](=O)[O-])ccc1C`, the IC50 [2] was 9.4 µM (active) and the IC50 [3] was 14.1 µM (active).
In the case of `Cc1ccc(NC(=O)c2ccc(S(=O)(=O)NCc3ccco3)cc2)nc1`, the EC50 [5] is reported as 15.2 µM (active), the EC50 [6] is reported as 11.1 µM (active) and the EC50 [7] is reported as 49.7 µM (active).
In the case of `COc1ccc(C(CNC(=O)Cc2ccc(Cl)c(Cl)c2)N(C)C)cc1` (centres undefined), the EC50 [10] is reported as 0.299 µM (active).
For `CN(Cc1cccc(Cl)c1Cl)C(=O)c1cccc(S(=O)(=O)N2CCN(Cc3ccccc3)CC2)c1`, the AC50 [11] was 3.38 µM (active), the AC50 [12] was 55.6 µM (active) and the AC50 [13] was 17.7 µM (active).
For `COc1ccc(OC)c(NC(=O)CSc2nc3ccccc3c3nc4ccccc4n23)c1`, the IC50 [1] was > 50 µM (not active).
In the case of `Nc1c(-c2ccc(Cl)cc2)nnn1-c1ccccc1`, the EC50 [5] is reported as 0.217 µM (active), the EC50 [6] is reported as 0.135 µM (inconclusive) and the EC50 [7] is reported as 13.2 µM (active).
In the case of `CC1(C)CC(=O)C2=CNc3ccccc3N=C2C1`, the EC50 [5] is reported as > 120 µM (not active), the EC50 [6] is reported as > 120 µM (not active) and the EC50 [7] is reported as > 120 µM (not active).
